In patent US20220072131A1, “Dihydroxyphenyl Neurotransmitter Compounds, Compositions And Methods” (Auspex Pharmaceuticals, Inc., priority 2013, published 2022):

Assays:
anesthetized rats = test: Change of mean arterial blood pressure in anesthetized rats following intravenous administration; format: in vivo, rat; settings: 2 mg/kg, in comparison to the same dose of L-threo-DOPS
Protocol: Change of Mean Arterial Blood Pressure in Anesthetized Rats Following Intravenous Administration of 2 mg/kg L-Threo-2,3-Dideutero POPS in Comparison to the Same Dose of L-Threo-DOPS

[1] = molecular target: T1, monoamine oxidase-A (MAO-A) (Homo sapiens, UniProt P21397); test: In vitro monoamine oxidase A degradation assay; format: in vitro ADME; settings: incubated with MAO-A; compared to non-deuterated norepinephrine; disappearance of norepinephrine tracked
T1 sequence (P21397 1-527): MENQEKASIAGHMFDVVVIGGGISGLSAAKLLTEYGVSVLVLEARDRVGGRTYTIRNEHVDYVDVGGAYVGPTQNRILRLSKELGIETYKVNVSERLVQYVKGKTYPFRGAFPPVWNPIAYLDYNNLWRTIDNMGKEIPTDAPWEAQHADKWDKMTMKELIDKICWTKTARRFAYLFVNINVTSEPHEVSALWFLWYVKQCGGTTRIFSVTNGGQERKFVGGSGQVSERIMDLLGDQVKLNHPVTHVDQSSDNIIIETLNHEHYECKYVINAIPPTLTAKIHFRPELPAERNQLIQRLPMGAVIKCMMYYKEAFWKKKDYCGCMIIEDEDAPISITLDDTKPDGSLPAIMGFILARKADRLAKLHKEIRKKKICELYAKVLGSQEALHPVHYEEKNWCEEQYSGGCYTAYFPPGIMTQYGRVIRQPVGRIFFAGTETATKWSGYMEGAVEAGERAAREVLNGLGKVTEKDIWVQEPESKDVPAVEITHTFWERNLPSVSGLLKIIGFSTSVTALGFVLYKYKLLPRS
Protocol: Norepinephrine and d6-norepinephrine were incubated with monoamine oxidase-A (MAO-A).
The appearance of 3,4-dihydroxyphenylglycolaldehyde and the disappearance of norepinephrine were tracked. Compared to non-deuterated norepinephrine, d6-norepinephrine was associated with about a 5-fold decrease in digestion by MAO-A and about a 75% decrease in 3,4-dihydroxyphenylglycolaldehyde production.
The assay method is a batch alumina extraction followed by liquid chromatography with electrochemical detection. The post-column electrodes are arranged in series, with an oxidizing potential at the first electrode and reducing potential at the third. This series arrangement of flow-through electrodes reduces the solvent front substantially and improves the sensitivity and specificity for detecting reversibly oxidized species such as catechols. 3,4-Dihydroxyphenylglycolaldehyde is identified by a broad, short peak within the solvent front.

decrease in digestion by MAO-A [1] [fold] | Compound | Change of mean arterial blood pressure (anesthetized rats)
 | [2H]C(N)(C(=O)O)C([2H])(O)c1ccc(O)c(O)c1 [L-threo-2,3-dideutero DOPS] | enhanced and prolonged increase
~5 | [2H]c1c([2H])c([C@@]([2H])(O)C([2H])([2H])N)c([2H])c(O)c1O [d6-norepinephrine] | 
